Entries after “also recorded” stand apart in the source; their conditions may differ.
How the values were obtained:
Assay type in all cases: physicochemical
[1] = Short-term thermal stability by thermogravimetric analysis (TGA)
Protocol: (§1) The short-term thermal stability of the unsaturated surfactant was assessed using thermogravimetric analysis (TGA). The thermal stability for a longer period (2 weeks) was determined by FTIR and NMR. The synthesized unsaturated surfactant was dried and heated at 10° C./min in an SDT-Q600 instrument (TA Instruments) from room temperature to 600° C. under nitrogen atmosphere. The thermal stability for a longer period was determined by aging 1 wt % aqueous solution of the unsaturated surfactant at 90° C. for 15 days. FTIR, ^13C NMR, and ^1H NMR were used to identify the structural changes in the unsaturated surfactant after aging. A Nicolet 6700 spectrometer was used for FTIR analysis of the unsaturated surfactant, while a JEOL 500 MHz spectrometer was used for obtaining the NMR spectra.
Solubility and compatibility of the surfactant in the reservoir and injection brine are the primary considerations for further evaluation of the unsaturated surfactant for EOR application. If the surfactant is not soluble in the seawater and formation brine, it can be rejected at the initial stage. […] After the compatibility test with SW and FW, the short-term thermal stability of the synthesized unsaturated surfactant was evaluated using TGA analysis. […] Only 3% weight loss was observed up to 200° C., which was mainly associated with solvent and water evaporation. […]

[2] = Long-term thermal stability: aging at 90° C. for 15 days, phase behavior, NMR, FTIR
Protocol: as §1
For long-term thermal stability, 1 wt % surfactant solution was aged in sealed aging tubes at 90° C. for 15 days. […] The two methyl carbons directly attached to the quaternary nitrogen [—CH2—N^+—(CH3)2—CH2—] were detected at δ=50.8 ppm and the two methylene carbons directly attached to quaternary nitrogen [—CH2—N^+—(CH3)2—CH2—] at δ=62.2 and δ=62.7 ppm. The olefinic carbons in the unsaturated surfactant tail appeared at δ=129.6 and δ=130.0 ppm. The amide carbonyl group [—CH2—C═O—NH] resonated at δ=175.1 ppm. The peaks appearing in the ^13C-NMR spectra of the sample agreed with the proposed structure of the unsaturated surfactant. […] The carbons of two methyl groups connected with the central positively charged nitrogen [—CH2—N^+(CH3)2—CH2—] still present in the aged sample and were detected at δ=50.8 ppm. Similarly, the carbons of two methylene groups attached to the central positively charged nitrogen [—CH2—N^+(CH3)2—CH2—] were also detected at δ=62.2 and δ=62.7 ppm. […] In the ^1H-NMR spectrum of the unsaturated surfactant before aging (FIG. 5), the terminal methyl protons [—(CH2)n—CH3)] was detected at δ=0.84 ppm and the methylene protons [—(CH2)n—CH3)] in the unsaturated surfactant tail resonated at δ=1.23 ppm. […]

[3] = Solubility and compatibility in seawater (SW) and formation water (FW)
Protocol: Synthetic seawater (SW) and formation water (FW) were prepared using NaCl, Na2SO4, NaHCO3, CaCl2, and MgCl2. All the salts were obtained from Sigma-Aldrich, USA.
Solubility and compatibility of the surfactant in the reservoir and injection brine are the primary considerations for further evaluation of the unsaturated surfactant for EOR application. If the surfactant is not soluble in the seawater and formation brine, it can be rejected at the initial stage. […] After the compatibility test with SW and FW, the short-term thermal stability of the synthesized unsaturated surfactant was evaluated using TGA analysis. […] Only 3% weight loss was observed up to 200° C., which was mainly associated with solvent and water evaporation. […] TGA results helped to identify and eliminate the surfactants that had lower decomposition temperatures. However, for real field applications, long-term thermal stability of the surfactant must be considered, as the surfactant residence time in the reservoir could vary from a few days to a few months.

[4] = Compatibility of surfactant with AM-AMPS copolymer; conditions: commercially available AM-AMPS copolymer
Protocol: The interactions of the synthesized unsaturated surfactant with a commercially available copolymer of acrylamide and 2-acrylamido-2-methylpropane sulfonic acid (AM-AMPS) were evaluated using compatibility and rheological tests.

CCCCCCCC/C=C\CCCCCCCC(=O)NCCC[N+](C)(C)CCCS(=O)(=O)[O-] [unsaturated surfactant, 3-(N-oleamidopropyl-N,N-dimethylammonium) propane sulfonate]
short-range thermal stability (TGA) [1]: excellent short-range thermal stability | weight loss (TGA) ([1]; up to 200° C., heating rate 10° C. min^−1, nitrogen): 3% | appearance of solution after aging ([2]; 1 wt % surfactant solution, sealed tubes, 90° C., 15 days): remained clear and there was no phase separation or precipitation | long-term thermal stability ([2]; 90° C., 15 days, phase behavior, TGA, FTIR, NMR): excellent long-range thermal stability | structure after aging (1H/13C NMR, FTIR) ([2]; aged 15 days at 90° C.): survival of original structure; also recorded: no structure degradation | precipitation or phase separation on dissolution ([3]; SW (57,643 ppm) and FW (213,734 ppm)): no precipitation or phase separation | solubility in SW and FW ([3]; seawater and formation water): excellent solubility | compatibility with acrylamide copolymer [4]: excellent compatibility
